“Also recorded” adds a separate entry of the source. Read-outs that look alike come from different tables or passages of the source.
Experiments:
[1] = system: HIV-1 VLP assembly (Pr55Gag); test: microbe, parasite or virus in culture; format: cell-based; settings: for SI (ratio CC50:IC50): Table 2
Experimental: Aliquots of Sf9 cells (10^6) were infected with two recombinant baculoviruses at equal multiplicity of infection (MOI of 10 PFU/cell, each). One expressed the HIV-1 Gag precursor (AcMNPV-Pr55Gag or control, p6-deleted AcMNPV-GagΔp6), the other the control Vpr protein (AcMNPV-Vpr) or the LucVpr fusion (AcMNPV-LucVpr). […] To avoid any interference with a possible effect of DMSO, DMSO was kept constant in volume in the different samples. […] Cells were harvested at 48 h pi, and extracellular VLP released in the culture medium were quantitated using luciferase assay. Membrane-enveloped VLP were pelleted and resuspended in lysis KDT buffer (KDT: 0.1M potassium phosphate buffer, pH 7.8, 1 mM DTT, containing 0.2% Triton X100) for 30 min at 37° C. with vortexing every 10 min. Luciferase activity associated with VLP was measured as previously described [10], using a Lumat LB-9501 luminometer (Berthold Technologies, Bad Wildbad, Germany). […] To compensate for eventual negative effects of drugs on LucVpr expression, the luciferase activity was measured in the corresponding cell lysates, obtained after lysis of the pelleted cells with KDT buffer. The results were expressed as relative light units (RLU) per μg protein. The values of the ratio of VLP-associated to intracellular luciferase activity were plotted versus the inhibitor concentration.
Cell culture medium was then harvested at 48 h pi, subjected to the 2-step ultracentrifugation analysis, and each gradient fraction probed for Gag polyprotein and luciferase activity, as above. […] The gradient fractions corresponding to the peak of luciferase activity were pooled, and the VLP contained in these fractions were pelleted, lysed and assayed for luciferase content.
Drug treatment was maintained for a further 24 h, and VLP released in the cell culture medium were pelleted through a sucrose cushion [8]. The amounts of extracellular VLP recovered in the 48 h-pellets obtained in the presence of the different inhibitors were determined using the luciferase assays. After normalization to the luciferase activity determined in the corresponding cell lysates, the values of the ratio of VLP-incorporated to cell-associated luciferase activity were plotted versus the drug concentrations.

[2] = system: VLP assembly and budding; settings: 10 μg/ml (17 μM), previous study [8]; cited from earlier work
[3] = system: CA-SP1 cleavage; test: HIV-1 maturation inhibition assay, p25 (CA-SP1) to p24 (CA) processing in virion lysate; format: cell-based; settings: Western blot (FIG. 2)
Experimental: Two days after transfection, virus-containing supernatants were concentrated by ultracentrifugation through a layer of 20% sucrose at 25 000 rpm for 2 h30. Viral pellets were then resuspended in RIPA lysis buffer [10 mM Tris-HCl (pH 7.4), 1 mM EDTA, 100 mM NaCl, 1% Triton X-100, 0.1% SDS, 0.25% sodium deoxycholate, 0.2% phenylmethylsulfonyl fluoride (PMSF)]. Viral proteins were loaded on a 12.5% SDS-PAGE gel.
To further elucidate the mechanism of action, viral samples used for infection assays were subjected to biochemical characterization (FIG. 2).

[4] = system: HIV-1 virion morphology; test: Thin-section electron microscopy of virions from pNL4-3 transfected 293T cells; format: cell-based; settings: pNL4-3, 5 μg/ml (FIG. 3)
Experimental: Two days after transfection, 293T cells were processed for thin-layer electron microscopy as follows: cells were fixed in situ with 2.5% glutaraldehyde in cacodylate buffer (pH 7.4) for 60 min at 4° C. Cells were then post-fixed with 2% osmium tetroxide, washed in cacodylate buffer containing 0.5% tanic acid, and embedded in epon (Embed-812, Electron Microscopy Sciences Inc.). Sections were counterstained with uranyl acetate and lead citrate and examined with an Hitachi H7100 transmission electron microscope.
In the absence of compounds, cells transfected with pNL4-3 produced virus particles with the classical mature morphology characterized by the presence of condensed, conical cores (FIG. 3A).

[5] = system: HIV-1 VLP; settings: read-out: IC50 previously determined using immuno-radiochemical assay of VLP; reference [8]; cited from earlier work
[6] = system: HIV-1; test: Infection inhibition assay, MAGIC-5B indicator cells; settings: Table 1
Experimental: The evaluation of HIV-1 inhibition was carried out using MAGIC-5B indicator cells, which stably express the β-galactosidase reporter gene cloned downstream of the HIV-1 LTR promoter. Cells were plated at 8×10^4 cells per well, in 24-well plates and exposed to HIV-1 (x ng p24). Forty-eight hours post-infection, viral infectivity was monitored by quantification of o-nitrophenyl β-D-galactopyranoside hydrolysis from cell lysates (kit). β-galactosidase activity was normalized according to total protein content in the cell lysate. Control wells containing virus and cells only (no drug) and cells only (no virus or drug) were also prepared.

[7] = system: VLP assembly and budding; test: Electron microscopy of AcMNPV-Gag-infected Sf9 cells; format: cell-based, HIV-1; settings: 5 and 10 μg/ml for 24 h at 24 h pi
Experimental: Baculovirus-infected Sf9 cells were harvested at 48 h pi, pelleted, fixed with 2.5% glutaraldehyde in 0.1 M phosphate buffer, pH 7.5, post-fixed with osmium tetroxide (2% in H2O) and treated with 0.5% tannic acid solution in H2O. The specimens were dehydrated and embedded in Epon (Epon-812; Fulham, Latham, N.Y.). Ultrathin sections were stained with 2.6% alkaline lead citrate and 0.5% uranyl acetate in 50% ethanol, and post-stained with 0.5% uranyl acetate solution in H2O [8,9]. Grids were examined under a Jeol JEM-1400 electron microscope, equipped with an ORIUS™ digitalized camera (Gatan France, 78113-Grandchamp). For statistical EM analyses, a minimum of 30 grid squares containing 10 to 20 cell sections each were examined for counting VLP budding at the cell surface, or budding in intracellular vesicular compartment.
By contrast, control, untreated AcMNPV-Gag-infected Sf9 cells were decorated with VLP budding in abundance from the plasma membrane.

[8] = Cytotoxicity, MTT assay (Table 1); format: cell-based; settings: mean
Experimental: The cellular toxicity of the different compounds was evaluated using the MTT assays. […] The selectivity index (SI) was defined as the ratio CC50: IC50 (Table 1).

[9] = Cytotoxicity, MTT assay (Table 2); format: cell-based; settings: for CC50: MTT assay, mean
Experimental: The cellular toxicity of the different compounds was evaluated using the MTT assays. […] The selectivity index (SI) was defined as the CC50 to IC50 ratio.

[10] = target: T1, Pr55Gag (Human immunodeficiency virus type 1 group M subtype B, UniProt P03348); test: Chemical cross-linking of intracellular Pr55Gag with BS3; format: cell-based, HIV-1; settings: Sf9 cells, 10 μg/ml
T1 construct: AcMNPV-Pr55Gag expressed the full-length wild type (WT) Gag polyprotein (Pr55Gag); expressed in transfected cells; host or cells: Spodoptera frugiperda Sf9 cells infected with recombinant baculovirus AcMNPV-Pr55Gag
Experimental: Aliquots of recombinant baculovirus-infected Sf9 cells (5×10^5 cells) untreated or treated with 16 at 10 ug/ml for 24 h at 24 h pi were centrifuged at low speed, resuspended in 200 μl of PBS containing the cross-linker bis(sulfosuccinimidyl)suberate (BS3; Pierce Biotechnology, Rockford, Ill.) at increasing molarities, ranging from 0 to 50 mM [12], and incubated in this buffer for 30 min at room temperature (RT). Cell samples were then centrifuged, resuspended and lysed in 200 μl 0.015 M NaCl, 0.5 mM phosphate buffer pH 7.3 containing BS3 at the same molarites as in the original mixtures, and further incubated for 30 min at RT. Cell lysates were mixed with 30 μl 6 times concentrated (6×) SDS-sample buffer without β-mercaptoethanol, heated to 100° C. for 1 min, and Gag proteins analyzed by SDS-PAGE and immunoblotting. […]
To further analyse the mechanism of the effect of 16 on Gag polyprotein assembly, untreated and 16-treated (10 μg/ml), Pr55Gag-expressing Sf9 cells were incubated with increasing concentrations of the chemical cross-linker BS3 at 48 h pi for 30 min at room temperature, then lysed in hypotonic medium in the presence of BS3 used in the same range of concentrations. The oligomeric status of the Gag proteins was assessed by SDS-PAGE and Western blot analysis, using anti-Gag antibody, peroxidase-labeled complementary antibody and enhanced chemiluminescence (ECL). […]

[11] = Human immunodeficiency virus 1, read-out: IC50, inhibition of HIV-1 VLP assembly, Sf9 cells, mean
[12] = Human immunodeficiency virus 1, read-out: IC50, inhibition of HIV-1 VLP assembly, Sf9 cells, mean ± SEM, n = 4

Row | SMILES | virus morphology / virion maturation by EM [4] | SI (ratio CC50:IC50) [1] | SI (CC50/IC50 ratio) [6] | CC50 [8] [µM] | inhibition of conversion of uncleaved p25 (CA-SP1) to mature p24 (CA) [3] | CC50 [9] [µM] | also measured
1 | C=C(C)[C@@H]1CC[C@]2(C(=O)NC(CCCCN)C(=O)O)CC[C@]3(C)[C@H](CC[C@@H]4[C@@]5(C)CC[C@H](OC(=O)CC(C)(C)C(=O)O)C(C)(C)[C@@H]5CC[C@]43C)[C@@H]12 (stereo partly drawn) [Compound 17, N^2-[3β-(3-carboxy-3-methylbutanoyloxy)lup-20,29-en-28-oyl]-L-lysine] |  |  |  |  |  |  | VLP / particle assembly inhibition (in words) ([1]; FIG. 6): resembled that of 12
2 | C=C(C)[C@@H]1CC[C@]2(C(=O)O)CC[C@]3(C)[C@H](CC[C@@H]4[C@@]5(C)CC[C@H](OC(=O)CC(C)(C)C(=O)O)C(C)(C)[C@@H]5CC[C@]43C)[C@@H]12 [DSB, 3-O-(3′,3′-dimethylsuccinyl)-betulinic acid, reference compound] | lacked conical cores |  |  |  |  |  | IC50 ([1]; Human immunodeficiency virus 1, read-out: IC50, VLP formation): 3.8 to 4.2 µM; IC50 ([1]; Human immunodeficiency virus 1, read-out: IC50, inhibition of HIV-1 VLP assembly): 3 ± 1 µg/mL; IC50 ([1]; Human immunodeficiency virus 1, read-out: concentration for 50% inhibition of VLP formation): 2.2 to 2.5 µg/mL; effect on VLP budding and egress [2]: totally abolished VLP budding and egress; inhibition of conversion of uncleaved p25 (CA-SP1) to mature p24 (CA) ([3]; listed as 2): inhibit the CA-SP1 cleavage; also recorded: accumulation of p25 is observed; IC50 [5]: 8 to 10 µM
3 | C=C(C)[C@@H]1CC[C@]2(C(=O)NCC(=O)O)CC[C@]3(C)[C@H](CC[C@@H]4[C@@]5(C)CC[C@H](OC(=O)CC(C)(C)C(=O)O)C(C)(C)[C@@H]5CC[C@]43C)[C@@H]12 [Compound 12, N-[3β-(3-carboxy-3-methylbutanoyloxy)-lup-20,29-en-28-oyl]-glycine] | lacked conical cores | 5.3 | 309.37 | 49.5 | inhibit the CA-SP1 cleavage; also recorded: accumulation of p25 is observed | 31.1 | IC50 [1, 11]: 5.9 µM; IC50 [1, 12]: 3.8 ± 1.6 µg/mL; effect on VLP assembly and budding by EM [7]: net inhibitory effect on VLP assembly and budding
4 | C=C(C)[C@@H]1CC[C@]2(C(=O)NC(CCCCNC(=O)OC(C)(C)C)C(=O)O)CC[C@]3(C)[C@H](CC[C@@H]4[C@@]5(C)CC[C@H](OC(=O)CC(C)(C)C(=O)O)C(C)(C)[C@@H]5CC[C@]43C)[C@@H]12 (stereo partly drawn) [Compound 15, N^2—[O^3-(3-carboxy-3-methylbutyryl)betulinyl]-N^6-Boc-L-lysine] | lacked conical cores | 13.0 | 199.41 | 33 | inhibit the CA-SP1 cleavage; also recorded: accumulation of p25 is observed | 24.7 | IC50 [1, 11]: 1.9 µM; IC50 [1, 12]: 1 to 2 µg/mL; IC50, inhibition of HIV-1 VLP assembly ([1]; Sf9 cells, mean ± SEM, n = 4): 1.6 ± 0.5 µg/mL; effect on VLP assembly and budding by EM [7]: net inhibitory effect on VLP assembly and budding
5 | C=C(C)[C@@H]1CC[C@]2(C(=O)NCCN)CC[C@]3(C)C(CCC4[C@@]5(C)CC[C@H](OC(=O)CC(C)(C)C(=O)O)C(C)(C)C5CC[C@]43C)C12 (stereo partly drawn) [Compound 16, 4-({28-[(2-aminoethyl)amino]-28-oxolup-20,29-en-3β-yl}oxy)-2,2-dimethyl-4-oxobutanoic acid] |  |  |  |  |  |  | level of cytotoxicity compared to the other drugs [9]: lowest level of cytotoxicity
6 | C=C(C)[C@@H]1CC[C@]2(C(=O)NCC(=O)O)CC[C@]3(C)C(CCC4[C@@]5(C)CC[C@H](OC(=O)CC(C)(C)C(=O)O)C(C)(C)C5CC[C@]43C)C12 (stereo partly drawn) [Compound 12, N-[3β-(3-carboxy-3-methylbutanoyloxy)-lup-20,29-en-28-oyl]-glycine] |  |  |  |  |  |  | IC50 ([1]; Sf9 cells, mean, read-out: IC50, inhibition of HIV-1 VLP assembly): 5.9 µM
7 | C=C(C)[C@@H]1CC[C@]2(C(=O)NCCN)CC[C@]3(C)[C@H](CC[C@@H]4[C@@]5(C)CC[C@H](OC(=O)CC(C)(C)C(=O)O)C(C)(C)[C@@H]5CC[C@]43C)[C@@H]12 [Compound 16, 4-({28-[(2-aminoethyl)amino]-28-oxolup-20,29-en-3β-yl}oxy)-2,2-dimethyl-4-oxobutanoic acid] | lacked conical cores |  |  | 33.9 | inhibit the CA-SP1 cleavage; also recorded: accumulation of p25 is observed | 120 | Gag oligomerization status after BS3 cross-linking [10]: favored the occurrence and/or the stability and persistence of Gag trimers
8 | C=C(C)[C@@H]1CC[C@]2(C(=O)O)CC[C@]3(C)[C@H](CC[C@@H]4[C@@]5(C)CC[C@H](O)C(C)(C)[C@@H]5CC[C@]43C)[C@@H]12 [BA, betulinic acid, reference compound] |  | 1.1 | 0.85 | 4.52 |  | 43.8 | 
